In publication PMC7906020, “Trp-Containing Antibacterial Peptides Impair Quorum Sensing and Biofilm Development in Multidrug-Resistant Pseudomonas aeruginosa and Exhibit Synergistic Effects With Antibiotics” (Frontiers in Microbiology, 2021):
Converted amounts (≈) assume the structure as drawn. Peptide text beside a SMILES is read from it.

Key:
[1] = test system: LasB elastase of MRPA0108; assay: LasB elastase activity, elastin-Congo red method; format: cell-based, Pseudomonas aeruginosa; conditions: peptide at 1/4 × MIC, 24 h, 37°C; ECR substrate, OD495/OD600; vs control; triplicate
Method: (§1) The culture supernatant was obtained after centrifugation at 12,000×g for 10 min. (1) LasB elastase activity was measured using elastin-Congo red (ECR) as the substrate, as described by [Pattnaik et al. (2018)]. Briefly, 100 μl of the culture supernatant was added to 900 μl of ECR buffer (100 mM Tris-HCl, 1 mM CaCl2, pH 7.5) containing 10 mg of ECR and then incubated with shaking at 37°C for 18 h. Then, 100 μl of 0.12 M EDTA was added to stop the reaction. The insoluble ECR was removed by centrifugation, and the supernatant absorbance was measured at 495 nm. The optical density (OD) 495 nm/OD 600 nm represents the elastase activity. (2) LasA protease activity was measured as follows ([Pattnaik et al., 2018]): first, the culture supernatant was filtered to remove the bacterial cells, and then 150 μl of sterile-filtered supernatant was added to 2% azocasein (prepared in 50 mM Tris-HCl) and incubated for 4 h at 37°C. Trichloroacetic acid (TCA, 10%) was added to precipitate the undigested substrate. After centrifugation at 10,000 rpm for 10 min, 1 M NaOH was added to the supernatant, and the relative protease activity was measured at OD 440 nm. (3) The pyocyanin assay was based on the absorbance of excreted pyocyanin at 520 nm in an acidic solution ([Kong et al., 2005]). Three milliliters of culture supernatant were mixed with 2 ml of chloroform for 20 min, and then the pyocyanin from the chloroform phase was reextracted using 0.2 M HCl for 15 min to obtain a pink-colored pyocyanin solution. The OD 520 nm was measured to evaluate the change in pyocyanin content. (4) Rhamnolipid detection was carried out as previously described ([Wittgens et al., 2011]). Briefly, 500 μl of culture supernatant was mixed with 500 μl of ethyl acetate and vortexed vigorously for 15 s to extract rhamnolipid. After centrifugation at 10,000×g for 5 min at 4°C, the organic phase containing rhamnolipids was obtained and evaporated at room temperature overnight. […] The absorbance was measured at 420 nm. (5) The level of C4-HSL was quantified by GC-MS as previously described ([Guo et al., 2012]).

[2] = test system: rhamnolipid production in MRPA0108; assay: Rhamnolipid production, orcinol method; format: cell-based, Pseudomonas aeruginosa; conditions: peptide at 1/4 × MIC, 24 h, absorbance 420 nm, vs control, triplicate
Method: The culture supernatant was obtained after centrifugation at 12,000×g for 10 min. (1) LasB elastase activity was measured using elastin-Congo red (ECR) as the substrate, as described by [Pattnaik et al. (2018)]. Briefly, 100 μl of the culture supernatant was added to 900 μl of ECR buffer (100 mM Tris-HCl, 1 mM CaCl2, pH 7.5) containing 10 mg of ECR and then incubated with shaking at 37°C for 18 h. Then, 100 μl of 0.12 M EDTA was added to stop the reaction. The insoluble ECR was removed by centrifugation, and the supernatant absorbance was measured at 495 nm. The optical density (OD) 495 nm/OD 600 nm represents the elastase activity. (2) LasA protease activity was measured as follows ([Pattnaik et al., 2018]): first, the culture supernatant was filtered to remove the bacterial cells, and then 150 μl of sterile-filtered supernatant was added to 2% azocasein (prepared in 50 mM Tris-HCl) and incubated for 4 h at 37°C. Trichloroacetic acid (TCA, 10%) was added to precipitate the undigested substrate. After centrifugation at 10,000 rpm for 10 min, 1 M NaOH was added to the supernatant, and the relative protease activity was measured at OD 440 nm. (3) The pyocyanin assay was based on the absorbance of excreted pyocyanin at 520 nm in an acidic solution ([Kong et al., 2005]). Three milliliters of culture supernatant were mixed with 2 ml of chloroform for 20 min, and then the pyocyanin from the chloroform phase was reextracted using 0.2 M HCl for 15 min to obtain a pink-colored pyocyanin solution. The OD 520 nm was measured to evaluate the change in pyocyanin content. (4) Rhamnolipid detection was carried out as previously described ([Wittgens et al., 2011]). Briefly, 500 μl of culture supernatant was mixed with 500 μl of ethyl acetate and vortexed vigorously for 15 s to extract rhamnolipid. After centrifugation at 10,000×g for 5 min at 4°C, the organic phase containing rhamnolipids was obtained and evaporated at room temperature overnight. The rhamnolipid extract dissolved in ultrapure water was mixed with orcinol reagent (0.19% orcinol in 53% H2SO4) and incubated at 80°C for 30 min. The absorbance was measured at 420 nm. (5) The level of C4-HSL was quantified by GC-MS as previously described ([Guo et al., 2012]).

MRPA0108 biofilms = assay: Confocal laser scanning microscopy of biofilms (LIVE/DEAD staining); format: cell-based, Pseudomonas aeruginosa; conditions: 24 h; for average biofilm thickness: after treatment with low concentrations of peptide (1 × MIC or 2 × MIC), 37°C, control biofilm 6 μm; for percentage of dead/live cells in biofilm: control 8.7%
Method: Biofilms of MRPA0108 were visualized by confocal microscopy. Mid-log growth-phase bacteria were diluted to 1 × 10^7 CFU/ml. […] LB liquid medium and erythromycin were used as negative and positive controls, respectively. After incubation, the supernatant was removed, and the slides were washed and stained in a dark environment for 30 min using a LIVE/DEAD BacLight^TM Bacterial Viability Kit (Invitrogen, Life Technologies, Shanghai, China). The slides were washed three times and imaged with a confocal laser scanning microscope (LSM 710, Carl Zeiss, Germany) with excitation/emission wavelengths of 480/500 and 490/635 nm for SYTO9 and propidium iodide (PI), respectively. SYTO9 was used to indicate live bacteria, and PI was used to mark dead bacteria.

[3] = test system: exopolysaccharide production in MRPA0108; assay: Exopolysaccharide determination, phenol-H2SO4 method; format: cell-based, Pseudomonas aeruginosa; conditions: phenol-H2SO4, 490 nm
Method: (§2) Exopolysaccharides were determined using the phenol-H2SO4 method. Briefly, after incubation, the cultures were centrifuged at 10,000 rpm for 15 min, and the pellets were resuspended in high-salt buffer (10 mM KPO4, 5 mM NaCl, 2.5 mM MgSO4, pH 7.0), followed by recentrifugation at 10,000 rpm for 30 min. The resulting supernatant was mixed with three volumes of chilled ethanol (100%) and incubated overnight at 4°C. The precipitated exopolysaccharide was added to a mixture containing cold phenol and H2SO4, and the absorbance of the solution was measured at 490 nm. Alginate content was determined using the H2SO4-carbazole method. Briefly, after incubation, the precooled cultures were mixed with an H2SO4 solution (4:1) and vortexed in ice water, and then 0.2% carbazole dissolved in ethanol was added. The mixture was revortexed and incubated at 55°C for 30 min, and the OD 530 nm was measured.

[4] = test system: alginate production in MRPA0108; assay: Alginate determination, H2SO4-carbazole method; format: cell-based, Pseudomonas aeruginosa; conditions: OD 530 nm
Method: as §2

MRPA0108 strain = conditions: previous study, ref Han et al., 2020; cited from earlier work
Source text: Supplement Table_1.docx, table 1: Table S1 Biological characteristics and antibacterial activities of the Trp-containing antimicrobial peptides (32) | column: MIC(μM)

[5] = cited from earlier work
Source text: Supplement Table_1.docx, table 1: Table S1 Biological characteristics and antibacterial activities of the Trp-containing antimicrobial peptides (32) | column: Hemolysis (μM)

[6] = test system: MRPA0108 swarming motility; assay: Swarming motility assay; format: cell-based, Pseudomonas aeruginosa; conditions: erythromycin positive control, concentration not given; 24 h, 37°C; vs control
Method: The swarming motility of MRPA0108 was assessed as described by [O’May and Tufenkji (2011)], with slight modifications. Briefly, swarming agar medium (1% tryptone, 0.5% NaCl, and 0.5% agar) was prepared in the presence or absence of peptide at a final concentration of 1/4 × MIC. MRPA0108 cells from an overnight culture grown on LB agar plates were placed directly on the agar surface (center) with a sterile toothpick so that the motility within the semisolid agar could be evaluated. After 24 h of incubation at 37°C, the diameters of swarming motility were observed and measured. LB liquid medium and erythromycin were used as negative control and positive controls, respectively. All experiments were repeated three times.

[7] = test system: pyocyanin production in MRPA0108; assay: Pyocyanin production assay; format: cell-based, Pseudomonas aeruginosa; conditions: peptide at 1/4 × MIC, 24 h; OD 520 nm; vs untreated control; triplicate
Method: as §1, with “Trichloroacetic acid (TCA, 10%) was added to precipitate the undigested substrate.” left out, “Three milliliters of culture supernatant were mixed with 2 ml of chloroform for 20 min, and then the pyocyanin from the chloroform phase was reextracted using 0.2 M HCl for 15 min to obtain a pink-colored pyocyanin solution.” left out, “content.” for “content. (4) Rhamnolipid detection was carried out as previously described ([Wittgens et al., 2011]). Briefly, 500 μl of culture supernatant was mixed with 500 μl of ethyl acetate and vortexed vigorously for 15 s to extract rhamnolipid. After centrifugation at 10,000×g for 5 min at 4°C, the organic phase containing rhamnolipids was obtained and evaporated at room temperature overnight.”

MRPA0108 = assay: Checkerboard assay (FICI) of peptides with antibiotics; format: cell-based, Pseudomonas aeruginosa; conditions: MRPA0108, 24 h 37°C, median of at least three experiments, synergy ≤ 0.5, additive 0.5-1, indifference 1-2
Method: The synergistic effect of peptides and antibiotics was evaluated using the checkerboard method, in which the fractional inhibitory concentration index (FICI) was used to analyze the type of interaction between compounds ([Berditsch et al., 2015]). A 100 μl inoculum of 10^5 CFU/ml planktonic bacteria was added to the respective wells of 96-well microtiter plates, and then serial dilutions of peptide and antibiotic at 100 μl volumes were added to each well and incubated at 37°C for 24 h. The OD 600 nm value was measured with a microplate plate reader (Varioskan Flash Microplate Reader, Thermo Fisher Scientific Co., Beijing) as an indicator of growth inhibition. The resulting checkerboard contained each combination of peptide and antibiotic in 9 doubly increasing concentrations, with wells containing the highest concentration of each antibiotic at opposite corners. The concentrations tested for every combination of peptide-antibiotic were their respective MICs. MH medium and the peptide/antibiotic combination served as negative and positive controls, respectively. The FICI is calculated as FICa plus FICb, where FICa is the MIC of the peptide in the presence of antibiotics/the MIC of the peptide alone, and FICb is the MIC of the antibiotic in the presence of peptide/the MIC of the antibiotic alone. Drug interactions were defined as follows: synergy, FICI ≤ 0.5; additive effect, 0.5 < FICI ≤ 1; and indifference, 1 < FICI ≤ 2 ([Hollander et al., 1998]; [Yoon et al., 2004]). The results were recorded in at least three independent experiments, and the median FICI values were used in the analysis.

Compound: CC[C@H](C)[C@H](N)C(=O)N[C@@H](CCCCN)C(=O)N[C@@H](CCCCN)C(=O)N[C@@H](Cc1c[nH]c2ccccc12)C(=O)N[C@@H](CC(C)C)C(=O)N[C@@H](CO)C(=O)N[C@@H](CCCCN)C(=O)N[C@H](C(=O)N[C@@H](CCCCN)C(=O)N[C@@H](CCCCN)C(=O)N[C@@H](CC(C)C)C(=O)N[C@@H](CC(C)C)C(=O)N[C@@H](CCCCN)C(N)=O)[C@@H](C)CC [I4W] (H-IKKWLSKIKKLLK-NH2; N-terminus and C-terminus assumed)
- decrease of LasB elastase activity [1]: 22.3%
- inhibition of rhamnolipid production [2]: 43.9%
- average biofilm thickness (MRPA0108 biofilms): 1.5–2.5 μm
- percentage of dead/live cells in biofilm (MRPA0108 biofilms; peptide at 1 × MIC, SYTO9/PI): 31.2%
- percentage of dead/live cells in biofilm (MRPA0108 biofilms; peptide at 2 × MIC, SYTO9/PI): 41.7%
- reduction of exopolysaccharide production ([3]; peptide at 1/4 × MIC, overnight 37°C): 25.0%
- reduction of exopolysaccharide production ([3]; peptide at 1 × MIC): 65.2%
- reduction of exopolysaccharide production ([3]; peptide concentration increased onefold from 1/4 × MIC): 42.4%
- inhibition of alginate production ([4]; peptide at 1/4 × MIC): 47%
- inhibition of alginate production ([4]; peptide at 1 × MIC): 68%
- MIC (MRPA0108 strain): 6.25 µM (≈ 10.2 µg/mL)
- Hemolysis [5]: > 500 µM

Compound: CC[C@H]1OC(=O)[C@H](C)[C@@H](O[C@H]2C[C@@](C)(OC)[C@@H](O)[C@H](C)O2)[C@H](C)[C@@H](O[C@@H]2O[C@H](C)C[C@H](N(C)C)[C@H]2O)[C@](C)(O)C[C@@H](C)C(=O)[C@H](C)[C@@H](O)[C@]1(C)O [erythromycin, reference compound]
- percentage of dead/live cells in biofilm (MRPA0108 biofilms; erythromycin positive control, concentration not given): 68.9%
- reduction in swarming motility [6]: 85%

Compound: IKKIWSKIKKLLK-NH2 [L5W]
- decrease of LasB elastase activity [1]: 24.1%
- reduction of pyocyanin production [7]: 69.4%
- inhibition of rhamnolipid production [2]: 40.7%
- average biofilm thickness (MRPA0108 biofilms): 1.5–2.5 μm
- percentage of dead/live cells in biofilm (MRPA0108 biofilms; peptide at 1 × MIC, SYTO9/PI): 21.4%
- percentage of dead/live cells in biofilm (MRPA0108 biofilms; peptide at 2 × MIC, SYTO9/PI): 32.5%
- FICI in combination with ceftazidime (MRPA0108): 0.23
- FICI in combination with levofloxacin (MRPA0108): 0.62
- FICI in combination with piperacillin (MRPA0108): 0.37
- MIC (MRPA0108 strain): 12.5 µM
- Hemolysis [5]: > 500 µM
